Assay results as given in patent publication US20080293683A1, “Hormone Replacement Therapy” (University of Kansas Medical Center, priority 2007, published 2008).
“And” between values parts separate entries of the source, which are not always exact repeats. Identical values can stand only once. Like-named read-outs stand apart in the source and are kept apart here.

Assays:
recombinant human ERβ = molecular target: T1, recombinant human ERβ (Homo sapiens, UniProt Q92731); assay: ERβ binding assay: competition of [3H]E2 binding by competing estrogens; conditions: for binding affinity for ERβ (in words): concentrations up to 1000 nM; for RBAβ (%) (relative binding affinity for ERβ, of E2): calculated against E2 = 100
T1 construct: purchased PanVera Corporation (Madison, Wis.); host or cells: baculovirus-mediated expression system
T1 sequence (Q92731 whole entry): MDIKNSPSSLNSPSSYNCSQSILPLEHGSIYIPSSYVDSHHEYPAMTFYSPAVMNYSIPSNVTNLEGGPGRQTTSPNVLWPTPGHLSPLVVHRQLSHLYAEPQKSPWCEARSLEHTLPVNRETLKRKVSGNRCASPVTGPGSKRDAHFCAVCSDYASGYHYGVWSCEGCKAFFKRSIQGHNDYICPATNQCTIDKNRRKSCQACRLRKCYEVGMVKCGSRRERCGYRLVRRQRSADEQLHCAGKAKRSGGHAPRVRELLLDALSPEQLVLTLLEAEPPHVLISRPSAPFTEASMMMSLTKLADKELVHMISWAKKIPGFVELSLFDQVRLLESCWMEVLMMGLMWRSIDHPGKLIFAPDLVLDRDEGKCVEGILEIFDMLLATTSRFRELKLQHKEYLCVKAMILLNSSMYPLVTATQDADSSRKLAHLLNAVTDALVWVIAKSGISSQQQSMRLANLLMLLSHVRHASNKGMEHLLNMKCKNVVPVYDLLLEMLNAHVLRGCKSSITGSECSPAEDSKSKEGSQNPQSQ
Source text: (§1) The recombinant human ERα and ERβ proteins and bovine serum albumin (BSA) were obtained from PanVera Corporation (Madison, Wis.). According to the supplier, the recombinant human ERα and ERβ were produced in a baculovirus-mediated expression system, and they were soluble and functionally active, with post-translational modifications similar to those found in mammalian cells. See Reid et al., Human estrogen receptor-α: Regulation by synthesis, modification and degradation, Cell. Mol. Life.
(§2) The following buffer solutions were used in the ER binding assays, and they were prepared beforehand and stored at 4° C. The binding buffer consisted of 10% glycerol, 2 mM dithiothreitol, 1 mg/mL BSA and 10 mM Tris-HCl at pH 7.5. The ERα washing buffer contained 40 mM Tris-HCl and 100 mM KCl (pH 7.4), but the ERG washing buffer contained only 40 mM Tris-HCl (adjusted to pH 7.4). The 50% hydroxylapatite slurry was prepared first by vigorously mixing 10 g hydroxylapatite with 60 mL of the Tris-HCl solution (50 mM, pH 7.4). Hydroxylapatite was then allowed to settle for 20 minutes at room temperature, and the supernatant was decanted. The above procedures were repeated 10 times, and afterwards hydroxylapatite was kept in the 50 mM Tris-HCl solution overnight at 4° C. Hydroxylapatite slurry was then adjusted to an approximate final concentration of 50% (v/v) using the same Tris-HCl solution and stored at 4° C., and the slurry was stable for up to several months.
(§3) Note that all of the estrogens were initially dissolved in pure ethanol to a stock concentration of 1 mM, and then further diluted to 100 μM with 20% aqueous ethanol. […] Immediately before the addition of the ERα or ERβ protein, it was diluted in the binding buffer and mixed gently with repetitive pipettings. […] The incubation mixture was then mixed gently and thoroughly with repetitive pipettings. […] The binding mixture was incubated at room temperature for two hours. At the end of the incubation, 100 μL of the hydroxylapatite slurry was added to each tube and the tubes were incubated on ice for 15 minutes with 3 times of brief vortexing. An aliquot (1 mL) of the appropriate washing buffer was added, mixed, and centrifuged at 10,000 g for five minutes, and the supernatants were discarded. This wash step was repeated twice. Hydroxylapatite pellets were then resuspended in 200 μL ethanol (followed by another rinse with 200 μL ethanol), and then the content was transferred to scintillation vials (containing 4 mL of the scintillation fluid) for measurement of ^3H-radioactivity with a liquid scintillation counter (Packard Tri-CARB 2900 TR; Downers Grove, Ill.).
(§4) To calculate the specific binding (pmol/mL) of the human ERα or ERβ protein at each concentration point, the following equation was used: […]
(§5) When a lower radioligand concentration is used, the corresponding IC50 value will also be relatively lower, but when the radioligand concentration increases, the corresponding IC50 value will also increase. […] Since the RBA value is a parameter that is independent of the radioligand concentration used, we thus have placed more emphasis on the RBA values instead of the absolute IC50 values in interpreting the physiological meanings of the data from in vitro receptor competition assays.

recombinant human ERα = molecular target: T2, recombinant human ERα (Homo sapiens, UniProt P03372); assay: ERα binding assay: competition of [3H]E2 binding by competing estrogens; conditions: for RBAα % (relative binding affinity for ERα, of E2): calculated against E2 = 100; for RBAα/RBAβ: ratio of relative binding affinities ERα over ERβ
T2 construct: purchased PanVera Corporation (Madison, Wis.); host or cells: baculovirus-mediated expression system
T2 sequence (P03372 1-595): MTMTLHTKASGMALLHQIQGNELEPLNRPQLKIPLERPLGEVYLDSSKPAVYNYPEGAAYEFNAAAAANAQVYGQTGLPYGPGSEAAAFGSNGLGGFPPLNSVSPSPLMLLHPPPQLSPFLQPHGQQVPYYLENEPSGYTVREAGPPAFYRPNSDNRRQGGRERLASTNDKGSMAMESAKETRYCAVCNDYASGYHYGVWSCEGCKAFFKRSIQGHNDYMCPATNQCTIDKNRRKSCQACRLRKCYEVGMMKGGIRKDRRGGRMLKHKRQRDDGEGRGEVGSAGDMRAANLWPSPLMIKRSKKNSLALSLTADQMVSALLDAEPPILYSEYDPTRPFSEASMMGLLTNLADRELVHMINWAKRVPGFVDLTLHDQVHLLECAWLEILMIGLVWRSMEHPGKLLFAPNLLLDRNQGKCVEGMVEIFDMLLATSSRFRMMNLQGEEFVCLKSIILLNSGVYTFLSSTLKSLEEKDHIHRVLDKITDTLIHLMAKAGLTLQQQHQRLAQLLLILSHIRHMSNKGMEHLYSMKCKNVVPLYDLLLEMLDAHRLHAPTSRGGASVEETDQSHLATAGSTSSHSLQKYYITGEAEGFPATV
Source text: as §1, §2, §3, §4, §5

| Structure (SMILES) | IC50 (recombinant human ERβ; read-out: ERβ IC50) [nM] | IC50 (recombinant human ERα; read-out: ERα IC50) [nM] | RBAβ (%) (relative binding affinity for ERβ, of E2) (recombinant human ERβ) | RBAα % (relative binding affinity for ERα, of E2) (recombinant human ERα) | RBAα/RBAβ (recombinant human ERα) | IC50 (recombinant human ERβ) [nM] | IC50 (recombinant human ERα) [nM] | further results |
| --- | --- | --- | --- | --- | --- | --- | --- | --- |
| COc1cc2c(cc1O)[C@H]1CC[C@]3(C)[C@@H](O)CC[C@H]3[C@@H]1CC2 [2-OH-3-MeO-E2, 2-Hydroxyestradiol 3-methyl ether] | > 1000 | > 1000 |  |  |  |  |  | binding affinity for ERβ (in words) (recombinant human ERβ): substantially weaker binding affinity; binding affinity for ERα (in words) (recombinant human ERα; concentrations up to 1000 nM): substantially weaker binding affinity |
| CC12CCC3c4cc(O)c(O)cc4CCC3C1CCC2=O (centres unmarked) [2-OH-E1, 2-Hydroxyestrone] | 2000 | 316 | 0.4 | 4% | 10 |  |  | preference of binding affinity for ERα over ERβ (recombinant human ERα; ERα over ERβ): about ten-fold; RBAα/RBAβ (recombinant human ERα; listed as 2-hydroxyestrone): about 10 |
| C[C@]12CC[C@@H]3c4cc(O)c(O)cc4CC[C@H]3[C@@H]1CC[C@@H]2O [2-OH-E2, 2-Hydroxyestradiol] |  |  | 35 | 22% | 0.6 | 25.1 | 50.1 |  |
| C[C@]12CC[C@@H]3c4cc(O)c(O)cc4CC[C@H]3[C@@H]1C[C@@H](O)[C@@H]2O [2-OH-E3, 2-Hydroxyestriol] | 794 | 501 | 1 | 2% | 2 |  |  | RBAα/RBAβ (recombinant human ERα; listed as 2-hydroxyestriol): about 2 |
| C[C@]12CC[C@@H]3c4ccc(O)c(Br)c4CC[C@H]3[C@@H]1CC[C@@H]2O [4-Br-E2, 4-Bromoestradiol] | 25.1 | 159 | 35 | 7% | 0.2 |  |  | preference of binding affinity for ERβ over ERα (recombinant human ERβ; ERβ over ERα): about 5 fold |
| COc1c(O)ccc2c1CCC1C2CCC2(C)C(=O)CCC12 (centres unmarked) [4-MeO-E1, 4-Methoxyestrone] |  |  |  |  |  | > 1000 | > 1000 | binding affinity for ERβ (in words) (recombinant human ERβ): did not have appreciable binding affinity; binding affinity for ERα (in words) (recombinant human ERα): did not have appreciable binding affinity |
| COc1c(O)ccc2c1CCC1C2CCC2(C)C(O)CCC12 (centres unmarked) [4-MeO-E2, 4-Methoxyestradiol] |  |  | 1 | 2% | 2 | 891 | 708 | RBAα/RBAβ (recombinant human ERα; listed as 4-methoxyestradiol): about 2 |
| COc1c(O)ccc2c1CC[C@@H]1[C@@H]2CC[C@]2(C)[C@@H](O)[C@H](O)C[C@@H]12 [4-MeO-E3, 4-Methoxyestriol] | 631 | 1260 | 1 | 1% | 1 |  |  |  |
| Cc1c(O)ccc2c1CC[C@@H]1[C@@H]2CC[C@]2(C)[C@@H](O)CC[C@@H]12 [4-Methyl-E2, 4-Methylestradiol] | 25.1 | 126 | 35 | 7% and 9% | 0.3 |  |  |  |
| CC12CCC3c4ccc(O)c(N)c4CCC3C1CCC2=O (centres unmarked) [4-NH2-E1, 4-Aminoestrone] | > 1000 | 355 |  | 3% |  |  |  | binding affinity for ERβ (in words) (recombinant human ERβ): very weak binding affinities; binding affinity for ERα (in words) (recombinant human ERα; concentrations up to 1000 nM): very weak binding affinities |
| CC12CCC3c4ccc(O)c([N+](=O)[O-])c4CCC3C1CCC2=O (centres unmarked) [4-NO2-E1, 4-Nitroestrone] | > 1000 | 447 |  | 3% |  |  |  | binding affinity for ERβ (in words) (recombinant human ERβ): very weak binding affinities; binding affinity for ERα (in words) (recombinant human ERα; concentrations up to 1000 nM): very weak binding affinities |
| CC12CCC3c4ccc(O)c(O)c4CCC3C1CCC2=O (centres unmarked) [4-OH-E1, 4-Hydroxyestrone] | 708 | 708 | 1 | 2% | 2 |  |  | RBAα/RBAβ (recombinant human ERα; listed as 4-hydroxyestrone): about 2 |
| C[C@]12CC[C@@H]3c4ccc(O)c(O)c4CC[C@H]3[C@@H]1CC[C@@H]2O [4-OH-E2, 4-Hydroxyestradiol] | 15.9 | 15.9 | 56 | 70% | 1.3 |  |  | RBAα/RBAβ (recombinant human ERα; listed as 4-hydroxyestradiol): about 1.3 |
| CC12CCC3c4ccc(O)cc4C(=O)CC3C1CCC2=O (centres unmarked) [6-Keto-E1, 6-Ketoestrone] | 891 | 490 | 1 | 2% | 2 |  |  | RBA for ERβ, % of E1 (recombinant human ERβ; relative to E1): 50%; RBAα/RBAβ (recombinant human ERα; listed as 6-ketoestrone): about 2; RBA for ERα, % of E1 (recombinant human ERα; relative to E1): 23% |
| CC12CCC3c4ccc(O)cc4C(=O)CC3C1CCC2O (centres unmarked) [6-Keto-E2, 6-Ketoestradiol] |  |  | 56 | 71% | 1.3 | 15.9 | 15.9 | RBAα/RBAβ (recombinant human ERα; listed as 6-ketoestradiol): about 1.3 |
| C[C@]12CC[C@@H]3c4ccc(O)cc4C(=O)C[C@H]3[C@@H]1CC[C@H]2O [6-Keto-E2-17α, 6-Ketoestradiol-17α] |  |  | 1 | 2% | 2 | 1120 | 562 | RBA for ERβ, % of E2-17α (recombinant human ERβ; relative to E2-17α): 25%; RBAα/RBAβ (recombinant human ERα; listed as 6-ketoestradiol-17α): about 2; RBA for ERα, % of E2-17α (recombinant human ERα; relative to E2-17α): 9% |
